Publication PMC7037682, “Herb–Drug Interaction of Red Ginseng Extract and Ginsenoside Rc with Valsartan in Rats” (Molecules, 2020)
Where two headings read alike, the source gives them in different places.

Key:
OCT1 = molecular target: T1, OCT1 (Homo sapiens, UniProt O15245); test: Inhibition of OCT1-mediated [3H]MPP+ uptake in HEK293-OCT1 cells
T1 sequence (O15245 1-554): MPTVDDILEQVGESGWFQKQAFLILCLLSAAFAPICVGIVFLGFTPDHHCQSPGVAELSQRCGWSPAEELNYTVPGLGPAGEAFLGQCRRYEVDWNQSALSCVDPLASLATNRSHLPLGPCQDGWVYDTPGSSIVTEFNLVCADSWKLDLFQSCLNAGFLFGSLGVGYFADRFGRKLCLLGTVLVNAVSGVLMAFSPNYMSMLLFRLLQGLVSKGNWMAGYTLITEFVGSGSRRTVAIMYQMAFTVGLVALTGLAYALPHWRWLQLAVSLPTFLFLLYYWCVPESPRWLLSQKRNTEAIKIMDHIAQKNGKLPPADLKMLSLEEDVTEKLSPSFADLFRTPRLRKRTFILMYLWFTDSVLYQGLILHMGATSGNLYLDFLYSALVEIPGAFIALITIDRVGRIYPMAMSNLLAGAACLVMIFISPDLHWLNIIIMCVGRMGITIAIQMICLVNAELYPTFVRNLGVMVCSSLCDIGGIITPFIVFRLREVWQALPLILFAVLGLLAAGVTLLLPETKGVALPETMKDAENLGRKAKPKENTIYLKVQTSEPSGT
Procedure: (§1) HEK293 cells overexpressing the OCT1, OCT2, OAT1, OAT3, OATP1B1, and OATP1B3 transporters (HEK293-OCT1, -OCT2, -OAT1, -OAT3, -OATP1B1, and -OATP1B3, respectively) and HEK293-mock cells (Corning Life Sciences; Woburn, MA, USA) were used and characterized as previously described.
(§2) HEK293 cells overexpressing drug transporters and HEK293-mock cells were seeded in poly-D-lysine-coated 96-well plates at a density of 10^5 cells/well and were cultured in DMEM supplemented with 10% FBS, 5 mM non-essential amino acids, and 2 mM sodium butyrate in a humidified atmosphere with 8% CO2 at 37 °C.
(§3) To examine the effects of ginsenosides and typical inhibitors on transporter activity, aliquots (100 μL) of HBSS containing the probe substrate and ginsenosides or typical inhibitors were added to the cells after aspirating pre-incubated HBSS. The concentrations and probe substrates were as follows: 0.1 μM [^3H]MPP^+ for OCT1 and OCT2, 0.1 μM [^3H]PAH for OAT1, 0.1 μM [^3H]ES for OAT3 and OATP1B1, and 0.1 μM [^3H]EG for OATP1B3. […] Then the uptake of probe substrates into HEK293-mock cells and HEK293-OCT1, -OCT2, -OAT1, -OAT3, -OATP1B1, and -OATP1B3 cells in the presence and absence of typical inhibitor or each ginsenoside with previously described concentration range was measured for 5 min. Immediately after placing the plates on ice, the cells were washed three times with 100 μL of ice-cold HBSS, followed by lysing with 50 μL of 10% SDS solution and mixing with 150 μL of Optiphase cocktail solution (Perkin Elmer Inc., Boston, MA, USA). The radioactivity of the probe substrates in the cells was determined using a liquid scintillation counter.
(§4) In the inhibition studies, the uptake rate of substrate by HEK293 cells overexpressing the respective transporters was used as the control (100%) and the uptake rate of substrates in the presence of typical inhibitors or ginsenosides expressed as a percentage of the control. The inhibition data were fitted to an inhibitory effect model using Sigma plot (version 10.0; Systat Software Inc., San Jose, CA, USA). IC50 value indicated the half-maximal inhibitory concentration of the inhibitor.

OAT1 = molecular target: T2, OAT1 (Homo sapiens, UniProt Q4U2R8); test: Inhibition of OAT1-mediated [3H]PAH uptake in HEK293-OAT1 cells
T2 sequence (Q4U2R8 1-563): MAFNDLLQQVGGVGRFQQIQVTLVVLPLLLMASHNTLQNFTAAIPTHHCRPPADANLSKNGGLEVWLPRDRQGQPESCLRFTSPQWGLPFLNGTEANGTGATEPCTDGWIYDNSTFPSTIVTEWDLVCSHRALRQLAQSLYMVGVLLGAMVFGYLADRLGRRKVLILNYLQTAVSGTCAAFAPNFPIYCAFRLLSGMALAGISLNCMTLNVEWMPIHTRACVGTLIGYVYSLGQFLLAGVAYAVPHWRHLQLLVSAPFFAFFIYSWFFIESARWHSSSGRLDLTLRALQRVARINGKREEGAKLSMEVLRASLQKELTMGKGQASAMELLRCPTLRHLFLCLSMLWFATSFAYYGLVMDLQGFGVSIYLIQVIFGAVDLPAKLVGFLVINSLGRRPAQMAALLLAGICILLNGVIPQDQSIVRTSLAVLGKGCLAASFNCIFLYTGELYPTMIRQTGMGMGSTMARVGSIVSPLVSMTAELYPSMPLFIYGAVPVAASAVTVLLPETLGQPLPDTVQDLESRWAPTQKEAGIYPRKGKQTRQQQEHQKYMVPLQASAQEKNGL
Procedure: as §1, §2
Then the uptake of probe substrates into HEK293-mock cells and HEK293-OCT1, -OCT2, -OAT1, -OAT3, -OATP1B1, and -OATP1B3 cells in the presence and absence of typical inhibitor or each ginsenoside with previously described concentration range was measured for 5 min. Immediately after placing the plates on ice, the cells were washed three times with 100 μL of ice-cold HBSS, followed by lysing with 50 μL of 10% SDS solution and mixing with 150 μL of Optiphase cocktail solution (Perkin Elmer Inc., Boston, MA, USA). The radioactivity of the probe substrates in the cells was determined using a liquid scintillation counter.
as §4

OATP1B1 = molecular target: T3, OATP1B1 (Homo sapiens, UniProt Q9Y6L6); test: Inhibition of OATP1B1-mediated [3H]estrone-3-sulfate uptake in HEK293-OATP1B1 cells
T3 sequence (Q9Y6L6 1-691): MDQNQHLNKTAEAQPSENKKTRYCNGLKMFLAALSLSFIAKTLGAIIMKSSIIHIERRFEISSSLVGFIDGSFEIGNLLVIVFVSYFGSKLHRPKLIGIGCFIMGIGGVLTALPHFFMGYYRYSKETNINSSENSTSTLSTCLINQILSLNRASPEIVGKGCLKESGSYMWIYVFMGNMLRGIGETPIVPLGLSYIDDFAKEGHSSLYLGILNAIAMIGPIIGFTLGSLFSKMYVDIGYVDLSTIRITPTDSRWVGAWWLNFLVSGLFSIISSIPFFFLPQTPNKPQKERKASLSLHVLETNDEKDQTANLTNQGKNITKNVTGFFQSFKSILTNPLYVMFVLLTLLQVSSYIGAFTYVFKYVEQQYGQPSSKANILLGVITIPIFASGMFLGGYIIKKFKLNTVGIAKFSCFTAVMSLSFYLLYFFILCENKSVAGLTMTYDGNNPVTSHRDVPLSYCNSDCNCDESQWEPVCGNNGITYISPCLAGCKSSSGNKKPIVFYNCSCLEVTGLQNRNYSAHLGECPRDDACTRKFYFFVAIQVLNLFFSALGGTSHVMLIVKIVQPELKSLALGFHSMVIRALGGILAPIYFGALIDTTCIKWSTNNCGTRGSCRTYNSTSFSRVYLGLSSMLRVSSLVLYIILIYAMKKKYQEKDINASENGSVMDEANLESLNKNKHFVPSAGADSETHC
Procedure: as §1, §2, §3, §4

[1] = read-out: IC50 OCT1, HEK293-OCT1, 0.1 μM [3H]MPP+ uptake, 5 min
[2] = read-out: IC50 OAT1, HEK293-OAT1, 0.1 μM [3H]PAH uptake, 5 min
[3] = read-out: IC50 OATP1B1, HEK293-OATP1B1, 0.1 μM [3H]ES uptake, 5 min
[4] = HEK293-OATP1B1, 0.1 μM [3H]ES uptake, 5 min

Structure (SMILES) | IC50 (OCT1; [1]) [µM] | IC50 (OAT1; [2]) [µM] | IC50 (OATP1B1; [3]) [µM] | IC50 OATP1B1 (OATP1B1; [4]) | IC50 (OCT1) [µM] | IC50 (OAT1) [µM] | IC50 (OATP1B1) [µM]
CC(C)=CCCC(C)(O)[C@H]1CC[C@]2(C)[C@@H]1[C@H](O)C[C@@H]1[C@@]3(C)CC[C@H](O)C(C)(C)[C@@H]3CC[C@]12C (stereo in doubt) [PPD, protopanaxadiol] | > 100 | > 100 | > 100 |  |  |  | 
CC(C)=CCC[C@](C)(O[C@@H]1O[C@H](CO)[C@@H](O)[C@H](O)[C@H]1O)[C@H]1CC[C@]2(C)[C@@H]1[C@H](O)C[C@@H]1[C@@]3(C)CC[C@H](O)C(C)(C)[C@@H]3CC[C@]12C [Compound K, compound K] | > 100 | > 100 | 22.5 |  |  |  | 
CC(C)=CCC[C@](C)(O)[C@H]1CC[C@]2(C)[C@@H]1[C@H](O)C[C@@H]1[C@@]3(C)CC[C@H](O)C(C)(C)[C@@H]3[C@@H](O)C[C@]12C [PPT, protopanaxatriol] | > 100 | > 100 | > 100 | did not inhibit |  |  | 
CC(C)=CCC[C@](C)(O[C@@H]1O[C@H](CO[C@@H]2O[C@H](CO)[C@@H](O)[C@H](O)[C@H]2O)[C@@H](O)[C@H](O)[C@H]1O)[C@H]1CC[C@]2(C)[C@@H]1[C@H](O)C[C@@H]1[C@@]3(C)CC[C@H](O[C@@H]4O[C@H](CO)[C@@H](O)[C@H](O)[C@H]4O[C@@H]4O[C@H](CO)[C@@H](O)[C@H](O)[C@H]4O)C(C)(C)[C@@H]3CC[C@]12C [Rb1, ginsenoside Rb1] |  |  |  |  | > 100 | > 100 | 68.2
CC(C)=CCC[C@](C)(O[C@@H]1O[C@H](CO[C@@H]2OC[C@H](O)[C@H](O)[C@H]2O)[C@@H](O)[C@H](O)[C@H]1O)[C@H]1CC[C@]2(C)[C@@H]1[C@H](O)C[C@@H]1[C@@]3(C)CC[C@H](O[C@@H]4O[C@H](CO)[C@@H](O)[C@H](O)[C@H]4O[C@@H]4O[C@H](CO)[C@@H](O)[C@H](O)[C@H]4O)C(C)(C)[C@@H]3CC[C@]12C [Rb2, ginsenoside Rb2] |  |  |  |  | > 100 | > 100 | 47.6
CC(C)=CCC[C@](C)(O[C@@H]1O[C@H](CO[C@@H]2O[C@@H](CO)[C@H](O)[C@H]2O)[C@@H](O)[C@H](O)[C@H]1O)[C@H]1CC[C@]2(C)[C@@H]1[C@H](O)C[C@@H]1[C@@]3(C)CC[C@H](O[C@@H]4O[C@H](CO)[C@@H](O)[C@H](O)[C@H]4O[C@@H]4O[C@H](CO)[C@@H](O)[C@H](O)[C@H]4O)C(C)(C)[C@@H]3CC[C@]12C [Rc, ginsenoside Rc] |  |  |  |  | > 100 | > 100 | 18.3
CC(C)=CCC[C@](C)(O[C@@H]1O[C@H](CO)[C@@H](O)[C@H](O)[C@H]1O)[C@H]1CC[C@]2(C)[C@@H]1[C@H](O)C[C@@H]1[C@@]3(C)CC[C@H](O[C@@H]4O[C@H](CO)[C@@H](O)[C@H](O)[C@H]4O[C@@H]4O[C@H](CO)[C@@H](O)[C@H](O)[C@H]4O)C(C)(C)[C@@H]3CC[C@]12C [Rd, ginsenoside Rd] |  |  |  |  | > 100 | > 100 | 15.9
CC(C)=CCC[C@](C)(O[C@@H]1O[C@H](CO)[C@@H](O)[C@H](O)[C@H]1O)[C@H]1CC[C@]2(C)[C@@H]1[C@H](O)C[C@@H]1[C@@]3(C)CC[C@H](O)C(C)(C)[C@@H]3[C@@H](O[C@@H]3O[C@H](CO)[C@@H](O)[C@H](O)[C@H]3O[C@@H]3O[C@@H](C)[C@H](O)[C@@H](O)[C@H]3O)C[C@]12C [Re, ginsenoside Re] |  |  |  | did not inhibit | > 100 | > 100 | > 100
CC(C)=CCC[C@](C)(O[C@@H]1O[C@H](CO)[C@@H](O)[C@H](O)[C@H]1O)[C@H]1CC[C@]2(C)[C@@H]1[C@H](O)C[C@@H]1[C@@]3(C)CC[C@H](O)C(C)(C)[C@@H]3[C@@H](O[C@@H]3O[C@H](CO)[C@@H](O)[C@H](O)[C@H]3O)C[C@]12C [Rg1, ginsenoside Rg1] |  |  |  | did not inhibit | > 100 | > 100 | > 100
CC(C)=CCC[C@](C)(O)[C@H]1CC[C@]2(C)[C@@H]1[C@H](O)C[C@@H]1[C@@]3(C)CC[C@H](O[C@@H]4O[C@H](CO)[C@@H](O)[C@H](O)[C@H]4O[C@@H]4O[C@H](CO)[C@@H](O)[C@H](O)[C@H]4O)C(C)(C)[C@@H]3CC[C@]12C [Rg3, ginsenoside Rg3] | > 100 | > 100 | 7.99 |  |  |  | 
CC(C)=CCC[C@](C)(O)[C@H]1CC[C@]2(C)[C@@H]1[C@H](O)C[C@@H]1[C@@]3(C)CC[C@H](O)C(C)(C)[C@@H]3[C@@H](O[C@@H]3O[C@H](CO)[C@@H](O)[C@H](O)[C@H]3O)C[C@]12C [Rh1, ginsenoside Rh1] |  |  |  | did not inhibit | > 100 | > 100 | > 100
CC(C)=CCC[C@](C)(O)[C@H]1CC[C@]2(C)[C@@H]1[C@H](O)C[C@@H]1[C@@]3(C)CC[C@H](O[C@@H]4O[C@H](CO)[C@@H](O)[C@H](O)[C@H]4O)C(C)(C)[C@@H]3CC[C@]12C [Rh2, ginsenoside Rh2] |  |  |  |  | > 100 | > 100 | 22.3
